Test results taken from US8088818B2, “Catechol-based derivatives for treating or preventing diabetics” (National Taiwan University, priority 2006, dated 2012).

Legend:
Assay type in all cases: in vivo, rat
Insulin = Insulin concentration before and after oral administration
Excerpt: However, it is also observed that the dominant effect for reducing the blood sugar on the type I diabetic rats, which are incapable of secreting insulin.

type I diabetic rats = experiment: Safety evaluation: survival rate of type I diabetic rats; conditions: for Survival rate (%) of rats: p.o., after seven days
Protocol: Table 13 is a safety evaluation, wherein the type I diabetic rats are respectively orally administrated with the compound 370G at the dosage of 10 mg/kg and 30 mg/kg.

rats = experiment: Intravenous glucose tolerance test (IGTT); conditions: oral 0.5 mg/ml/kg; 1000 mg/kg glucose intravenous, 30 minutes
Type 2 diabetic rats = experiment: Blood sugar lowering in insulin-induced type 2 diabetic rats after oral administration
Protocol: (c) Insulin-induced type 2 diabetic rats: the abdominal cavity of the male Wistar rats of 12 weeks age are injected with 0.5 IU/kg long-term insulin (MonotardR HM) three times a day for fourteen days. Then, the 10 mg/kg tolbutamide, an anti-diabetic drug of sulfonylurea class, is injected into the abdominal cavity. Phlebotomize 0.1 ml blood respectively at the preadministration and the postadministration of sixty minutes, and calculate the reduced value of the blood sugar. If the variation of the ability of lowering blood sugar is less than 10%, which is deemed as the type II (insulin resistance) diabetes rat.
(§1) (d) The administration: Dissolve the medicine equivalently in deionized water, and then administrate the mentioned solution into the normal and diabetic rats by an orally perfusion. Keep with the desired concentration of the perfusion amount by taking suitable amount of the medicine solution according to the weight of the different animal.
(§2) The rats to be experimented should undergo a starvation for 8-12 hours overnight. Next day, the rats are anesthetized with 30 mg/kg pentobarbital by injecting into the abdominal cavity. After the rats fall asleep, fix the rats on the board with the rubber band. Open the groin, find the veins, bleed 0.1 ml blood from an empty stomach, and then feed the medicine into the body of the rats by taking orally. After 90 minutes, bleed and perform a centrifugation (13,000 rpm, 5 minutes) to separate the serum and the plasma. Take the 10 μl supernatant of the serum and add 1 ml reagent of the glucose kit thereinto by gently mixing. React for 5 minutes at 37 °C, followed by detecting the value of the blood sugar by means of BST330 based on the different absorption level. […] The value of the blood sugar (mg/dL) is calculated by comparing the level of redness with contrasting the standard curve.
(§3) (The value of blood sugar at postadministration)−(The value of blood sugar at preadministration)/(The value of blood sugar at preadministration)×100%

Type 1 diabetic rats = experiment: Blood sugar lowering in streptozotocin-induced type 1 diabetic rats after oral administration; conditions: for % decrease in plasma glucose: type 1 diabetic rats, 90 min
Protocol: (b) Streptozocin-induced type 1 diabetic rats: the male Wistar rats of 8 weeks age undergo a starvation for 72 hours, followed by anaesthetizing the rats by injecting with 30 mg/kg pentobarbital into the abdominal cavity. After the rats fall asleep, 60 mg/kg streptozotocin (STZ) is administrated by an intravenous injection. After a week, phlebotomize and obtain a value of blood sugar by a glucose kit, wherein the glucose kit is further analyzed by Biosystem S.A., Barcelona Spain, BST330. While the value of the blood sugar is greater than 400 mg/dL and the typical three symptoms, eating more, drink more, micturition occur, it is deemed as Type 1 Diabetic rats.
as §1, §2, §3
The results of the experiments are presented in the average value±the standard error (mean±SE), and the variations therebetween are evaluated according to the Student's t-test, while the variations thereamong are evaluated according to one-way ANOVA and Bonferroni's t-test, wherein P<0.05 is deemed to have apparent differences.

O=C(/C=C/c1ccc(O)c(O)c1)NCCc1ccccc1 [370G (45)]
Insulin, Post-treatment (30 min) (Insulin; 1 mg/kg, p.o., post-treatment (30 min)): 14.9 ± 3.4 μIU/ml
Insulin, Pre-treatment (Insulin; 1 mg/kg, p.o., pre-treatment (baseline)): 7.7 ± 1.0 μIU/ml
secretion of insulin (in words) (Insulin; oral 1.0 mg/kg, in 60 minutes): increased
Survival rate (%) of rats (type I diabetic rats; 10 mg/kg): 100%
Survival rate (%) of rats (type I diabetic rats; 30 mg/kg): 100%
effect on survival rate (in words) (type I diabetic rats; oral 10 mg/kg and 30 mg/kg, seven days): do not affect the survival rate
glucose availability in IGTT versus control (rats): raised
% decrease in plasma glucose (Type 2 diabetic rats; type 2 diabetic rats, 0.05 mg/kg oral, 90 min): 7.4 ± 2.6%
% decrease in plasma glucose (Type 2 diabetic rats; type 2 diabetic rats, 0.1 mg/kg oral, 90 min): 17.2 ± 2.6 %
% decrease in plasma glucose (Type 2 diabetic rats; type 2 diabetic rats, 0.5 mg/kg oral, 90 min): 20.1 ± 3.4 %
% decrease in plasma glucose (Type 2 diabetic rats; type 2 diabetic rats, 1.0 mg/kg oral, 90 min): 23.3 ± 3.3 %
% decrease in plasma glucose (Type 2 diabetic rats; type II diabetic rats, 0.5 mg/kg, p.o., 90 minutes): 20.0 ± 7.7%
reducing the blood sugar (in words) (Type 2 diabetic rats; type II diabetics rats, oral 0.05 to 1.0 mg/kg): phenomenon of reducing the blood sugar are shown
% decrease in plasma glucose (Type 1 diabetic rats; 0.1 mg/kg oral): 11.8 ± 5.5 %
% decrease in plasma glucose (Type 1 diabetic rats; 0.5 mg/kg oral): 13.8 ± 4.3 %
% decrease in plasma glucose (Type 1 diabetic rats; 1.0 mg/kg oral): 11.6 ± 1.7 %
effect for reducing the blood sugar, compared among rat models (Type 1 diabetic rats; type I diabetic rat): weakest effect
